{"source": "patent US12011447B2", "about": "“Pharmaceutical composition for treating thyroid cancer comprising tyrosine kinase activity inhibitor as active ingredient” (Kyungpook National University Industry-Academic Cooperation …, priority 2017, dated 2024)", "format_in_all_cases": "cell-based, human", "key": {"8505C cells": {"test_system": "8505C cells", "assay": "In vitro 125I uptake assay", "conditions": "anaplastic thyroid cancer cells, 24 hours treatment", "method": "8505C cells (1.25×10^5) were seeded and incubated in a 24-well plate for 24 hours, and then treated with TKI-0266 and further incubated for 24 hours. Thereafter, the medium was removed, and the cells were washed with bHBSS (Hank's balanced salt solution containing 0.5% BSA). The cells were incubated with 500 μl of bHBSS, 3.7 kBq carrier-free ^125I (Perkin-Elmer), and 10 μmol/L sodium iodide (specific activity of 740 MBq/mmol) at 37° C. for 30 minutes. Thereafter, the cells were washed twice with cold bHBSS and lysed by adding 500 μL of 2% SDS solution thereto. Radioactivity was measured using a Cobra II gamma-counter (Canberra Packard, Canada). The ^125I uptake values were normalized by comparing the amount of total protein determined by BCA protein assay kit."}, "NIS": {"test_system": "NIS", "assay": "Immunofluorescence microscopy of NIS", "conditions": "anaplastic thyroid cancer cells, 24 hours", "method": "8505C cells were seeded in a plate at a density of 2×10^5 cells and treated with the TKI inhibitor TKI-0266. After 24 hours, the cells were fixed with 4% paraformaldehyde for 30 minutes at room temperature and washed three times with PBS for 10 minutes each wash. Next, the cells were treated with PBS containing 0.7% Triton for 10 minutes at room temperature and quenched with PBS containing 50 mM NH4Cl for 10 minutes at room temperature. The cells were washed three times with PBS for 5 minutes each wash, and then blocked with 5% BSA-containing PBS and incubated with anti-NIS primary antibody (diluted at 1:50; Abcam, UK) overnight at 4° C. The next day, the cells were washed three times with PBS for 10 minutes each wash and incubated with Alexa-Fluor 488-conjugated secondary antibody (diluted at 1:300; Thermo Fisher Scientific) 1 hour. After 1 hour, the cells were washed three times with PBS for 10 minutes for each wash, and mounted on a coverslip using a Vecta mounting medium (Vector Laboratories, USA) containing 4′,6-diamidino-2-phenylindole (DAPI). NIS staining was observed by confocal laser microscopy (Zeiss, LSM 5 exciter, Germany)."}, "[1]": {"test_system": "TPO, TSHR, Tg, TTF-1 and Pax-8", "assay": "Western blot of thyroid-specific proteins", "conditions": "8505C-PNIS-PCMV cells", "method": "8505C-PNIS-PCMV cells were treated with TKI-0266 and incubated for 24 hours, and then the cell pellet was washed twice with cold phosphate-buffered saline (hereinafter referred to as PBS). An RIPA buffer (Thermo Fisher Scientific, USA) containing a protease/phosphatase cocktail inhibitor kit (Thermo Fisher Scientific) was added to the cell pellet to lyse the cells. The lysed cells were gently vortexed three times at a time interval, and centrifuged at 13000xg at 4° C. to isolate a soluble protein. The isolated protein was quantified using a BCA protein assay kit (Thermo Fisher Scientific).\nEqual amounts of proteins were separated by 10% SDS-PAGE (sodium dodecyl sulfate-polyacrylamide gel electrophoresis), and then the proteins were transferred to PVDF membranes (Millipore, USA). The PVDF membrane was blocked with 3% BSA (bovine serum albumin) in TBS containing Tween-20 (TBS-T) for 1 hour, and incubated with primary antibodies in 0.5% BSA overnight at 4° C. The next day, the PVDF membrane was incubated with HRP-conjugated secondary antibodies at room temperature for 1 hour, and washed three times with TBS-T. The protein bands were visualized using ECL detection reagent (GE Healthcare Life Sciences, Italy) and the Fusion FX chemiluminescence analyzer system (Vilber lourmat, France). […]"}, "[2]": {"assay": "R-luc BLI signal indicating cell viability in dual-reporter cells", "conditions": "human; 8505C-PNIS-PCMV cells, 24 hours, screening; read-out: BLI signal activity of R-luc (cell viability) compared to vehicle group", "text": "(§1) A pNIS-FL2-TurboFP635-pCMV-Rluc recombinant vector expressing reporter genes driven by dual promoters was constructed by Cosmo Genetech, Ltd. (Republic of Korea) using a pNIS-FL2-TurboFP635 vector and a pcDNA3.1/Hygro(+) vector. Specifically, in order to screen a substance that increases the activity of NIS promoter, Firefly-luciferase2(F-luc2) and TurboFP635 were included downstream (clockwise) of the NIS promoter. In order count cells, CMV promoter and Renilla-luciferase (R-luc) were included upstream (counterclockwise) of the NIS promoter. The pNIS-FL2-TurboFP635 vector was provided from Dr. Abhijit De (ACTREC, India), and the pcDNA3.1/Hygro(+) vector was purchased from invitrogen (USA).\n(§2) The 8505C cell line was transfected with the pNIS-FL2-TurboFP635-pCMV-Rluc recombinant vector using the Fu-GENE HD solution according to the protocols of the manufacturer (Promega). […]\n(§3) To examine transcriptional regulation of the NIS (sodium iodide symporter) promoter, the 8505C-PNIS-PCMV cells were treated with a tyrosine kinase inhibitor (hereinafter referred to as TKI) library for 24 hours. Next, D-luciferin (150 μg/ml) was added to the cells, and the activity of NIS promoter was measured by IVIS Lumina III (Perkin-Elmer, Wellesley, Mass., USA). To normalize the NIS promoter activity to cell number, 10 μg/ml of h-coelenterazine was added to the cells, and the activity of R-luc was measured. […]"}, "8505C-PNIS-PCMV cells": {"test_system": "8505C-PNIS-PCMV cells", "assay": "R-luc BLI signal indicating cell viability in dual-reporter cells", "conditions": "FIG. 7B", "text": "as §1, §2, §3"}, "NIS promoter": {"test_system": "NIS promoter", "assay": "NIS promoter activity by F-luc2 bioluminescence (BLI) in dual-reporter cells", "conditions": "8505C-PNIS-PCMV cells", "text": "as §1\nThe 8505C cell line was transfected with the pNIS-FL2-TurboFP635-pCMV-Rluc recombinant vector using the Fu-GENE HD solution according to the protocols of the manufacturer (Promega). The ratio of the recombinant vector to the Fu-GENE HD solution was 1:4, and the transfected cells were selected using 600 μg/ml of geneticin (AG Scientific). The selected cell line that stably expresses the dual-reporter gene system is referred to herein as ‘8505C-PNIS-PCMV’ cell line.\nTo examine transcriptional regulation of the NIS (sodium iodide symporter) promoter, the 8505C-PNIS-PCMV cells were treated with a tyrosine kinase inhibitor (hereinafter referred to as TKI) library for 24 hours. Next, D-luciferin (150 μg/ml) was added to the cells, and the activity of NIS promoter was measured by IVIS Lumina III (Perkin-Elmer, Wellesley, Mass., USA). To normalize the NIS promoter activity to cell number, 10 μg/ml of h-coelenterazine was added to the cells, and the activity of R-luc was measured. The activity of F-luc2 was divided by the R-luc activity. The TKI library used in the experiment was obtained from the Korea Chemical Bank (www.chembank.org) in the Korea Research Institute of Chemical Technology (Republic of Korea). Among the TKI candidates, TKI-0266 was selected, purchased from Chemdiv (USA), dissolved in DMSO, and then stored at −80° C."}}, "data": [{"smiles": "Cc1cc2c(N(C)C3CCCCC3)ncnc2s1", "note": "[TKI-0266]", "values": [{"measurement": "iodine uptake compared to vehicle group", "setting": "8505C cells", "value": "significantly increased"}, {"measurement": "expression of endogenous NIS (immunofluorescence)", "setting": "NIS", "value": "robust"}, {"measurement": "expression of TPO, TSHR, Tg, TTF-1 and Pax8 proteins", "setting": "[1]", "value": "increased"}, {"measurement": "expression of Tg, TPO, Pax8, TSHR, NIS and TTF-1 as treatment concentration increased", "setting": "[1]; FIG. 12", "value": "increased"}, {"measurement": "viability at 24 h", "setting": "[2]", "value": "~75", "unit": "%"}, {"measurement": "BLI signal activity of R-luc, vehicle group vs treated group", "setting": "8505C-PNIS-PCMV cells", "value": "did not significantly differ"}, {"measurement": "concentration showing the highest F-luc2 activity", "setting": "NIS promoter", "value": 12.5, "unit": "µM"}, {"measurement": "BLI signal activity of F-luc2 (NIS promoter activity), increase", "setting": "NIS promoter; 24 hours, screening", "value": 3.19, "unit": "fold"}, {"measurement": "BLI signal of F-luc2 as treatment concentration increased", "setting": "NIS promoter; FIG. 7A", "value": "increased"}, {"measurement": "activity of NIS promoter (normalized by cell viability) as treatment concentration increased", "setting": "NIS promoter; FIG. 8", "value": "increased"}]}]}
